Test systems include A549 NSCLC; COLO 205 colon; HCT-116 colon; IGROV1 ovarian; NCI-H23 lung; NCI-H522 lung; OVCAR-8 ovarian; SK-MEL-28 melanoma; SK-OV-3 ovarian; SR leukemia.
Holding throughout (assay): NCI-60 cell line screen, 48 h

SMILES strings stand for the structures. Where “and” joins values, the source holds several entries; their conditions need not be identical. Identical values can stand only once.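 Assay format: 96-well plates, 48-hour exposure. GI50: concentration for 50% inhibition of growth. At the TGI there is no net growth.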

`C/C1=C\C/C=C(\C)[C@H]2CC(CC/C(C)=C/CC1)[C@](C)(C=O)O2`: the GI50 in the test with A549 NSCLC is over 100 µM; in the test on COLO 205 colon, over 100 µM; in the test on HCT-116 colon it was 6.03 µM; in the test on IGROV1 ovarian, 18.2 µM; in the test with NCI-H23 lung, over 100 µM; in the test with NCI-H522 lung it was 59.6 µM. For the same compound, the GI50 is over 100 µM in the test with OVCAR-8 ovarian, over 100 µM in the test with SK-MEL-28 melanoma, over 100 µM in the test on SK-OV-3 ovarian and 16.3 µM with SR leukemia. The TGI in the test with A549 NSCLC, in the test with COLO 205 colon, with HCT-116 colon, in the test with IGROV1 ovarian, in the test with NCI-H23 lung and in the test with NCI-H522 lung was over 100 µM in each case. Also, the TGI is over 100 µM in the test on OVCAR-8 ovarian, over 100 µM with SK-MEL-28 melanoma, over 100 µM in the test with SK-OV-3 ovarian and 35.5 µM in the test on SR leukemia.

Take `NCCP(=O)(O)O`: the TGI in the test with A549 NSCLC, with COLO 205 colon, in the test with HCT-116 colon, in the test with IGROV1 ovarian, in the test with NCI-H23 lung and in the test on NCI-H522 lung was over 100 µM throughout. Also, the TGI in the test with OVCAR-8 ovarian, in the test on SK-MEL-28 melanoma, with SK-OV-3 ovarian and in the test with SR leukemia was over 100 µM throughout.

`NC(Cc1ccnnc1)C(=O)O` (centres undefined): the TGI in the test on A549 NSCLC, in the test with COLO 205 colon, in the test with HCT-116 colon, with IGROV1 ovarian, in the test on NCI-H23 lung and in the test with NCI-H522 lung was over 100 µM in each case. Also, the TGI in the test on OVCAR-8 ovarian, in the test with SK-MEL-28 melanoma, in the test on SK-OV-3 ovarian and in the test on SR leukemia was over 100 µM each time.

Turning to `CCc1c(O)c2c(c(O)c1C(C)=O)C(=O)c1c(cc(O)c(C(=O)O)c1C(=O)O)C2=O`, the TGI with A549 NSCLC, in the test with COLO 205 colon, with HCT-116 colon, in the test on IGROV1 ovarian, with NCI-H23 lung and in the test with NCI-H522 lung was over 100 µM in each case. The TGI in the test with OVCAR-8 ovarian, in the test on SK-MEL-28 melanoma, in the test on SK-OV-3 ovarian and in the test with SR leukemia was over 100 µM throughout.

In the case of `Cc1cccc2c1O/C(=C\c1ccc([N+](=O)[O-])o1)C2=O`, the GI50 in the test on A549 NSCLC is 2.56 µM; in the test on COLO 205 colon it was 0.66 µM; in the test with HCT-116 colon it was 0.251 µM; in the test on IGROV1 ovarian, 1.54 µM; with NCI-H23 lung, 1.35 µM; in the test with NCI-H522 lung it was 0.222 µM. The GI50 is 0.941 µM with OVCAR-8 ovarian, 1.53 µM in the test on SK-MEL-28 melanoma, 2.57 µM in the test with SK-OV-3 ovarian and 0.12 µM in the test on SR leukemia. In addition, the TGI came to 7.81 µM with A549 NSCLC; 2.14 µM in the test on COLO 205 colon; 0.777 µM with HCT-116 colon; 5.39 µM in the test with IGROV1 ovarian; 3.41 µM in the test with NCI-H23 lung; 0.668 µM in the test with NCI-H522 lung. The TGI in the test on OVCAR-8 ovarian is 7.93 µM; in the test with SK-MEL-28 melanoma, 3.05 µM; with SK-OV-3 ovarian it was 8.28 µM; with SR leukemia it was 0.727 µM.

As for `Cc1cc(C)cc(Nc2ccc([N+](=O)[O-])c(NCCN3CCOCC3)n2)c1`, the GI50 in the test on A549 NSCLC is 0.00286 µM and 0.02 µM; with COLO 205 colon it was 0.0023 µM; in the test with HCT-116 colon, 0.00222 µM and 0.0146 µM; in the test on NCI-H23 lung it was 0.00739 µM and 0.0275 µM; in the test on NCI-H522 lung it was 0.000235 µM; with OVCAR-8 ovarian it was 0.006 µM and 0.0368 µM. Moreover, the GI50 in the test on SK-MEL-28 melanoma was 0.672 µM and 2.75 µM. Also, the TGI is over 100 µM in the test with A549 NSCLC; 0.00795 µM in the test with COLO 205 colon; over 100 µM in the test with HCT-116 colon; over 100 µM in the test with IGROV1 ovarian; over 100 µM in the test on NCI-H23 lung; over 100 µM in the test with OVCAR-8 ovarian. Further, the TGI in the test on SK-MEL-28 melanoma, in the test on SK-OV-3 ovarian and with SR leukemia was over 100 µM throughout.

Turning to `CNC(=O)OC1C(O[C@H]2C[C@H]3[C@@H]4CC=C5C[C@@H](O)CC[C@]5(C)[C@H]4CC[C@]3(C)[C@H]2[C@H](C)C(=O)CCC(C)C)OCC(O)C1OC1OCC(O)C(O)C1OC(=O)c1ccc(OC)cc1` (some centres undefined), the GI50 is 0.0178 µM with A549 NSCLC; 0.0579 µM in the test on COLO 205 colon; 0.0129 µM in the test on HCT-116 colon; 0.0224 µM in the test with IGROV1 ovarian; 0.134 µM in the test on NCI-H23 lung; 0.0314 µM in the test on NCI-H522 lung. Moreover, the GI50 is 2.82 µM in the test on OVCAR-8 ovarian, 0.0123 µM in the test on SK-MEL-28 melanoma, 0.0177 µM in the test with SK-OV-3 ovarian and 0.0112 µM with SR leukemia. Further, the TGI worked out at 4.96 µM in the test with A549 NSCLC; 0.361 µM in the test on COLO 205 colon; 3.11 µM in the test with HCT-116 colon; 3.95 µM in the test with IGROV1 ovarian; 4.59 µM in the test with NCI-H23 lung; 0.271 µM in the test on NCI-H522 lung. Moreover, the TGI in the test on OVCAR-8 ovarian came to 11.2 µM; in the test with SK-MEL-28 melanoma, 0.0754 µM; in the test on SK-OV-3 ovarian, 1.31 µM; in the test on SR leukemia, 3.22 µM.

Take `C1=C(c2ccccc2)C(c2ccc(OCCN3CCCCC3)cc2)Oc2ccccc21` (centres undefined): the GI50 is 2.19 µM with A549 NSCLC; 1.62 µM in the test with COLO 205 colon; 1.7 µM in the test on HCT-116 colon; 2.07 µM in the test with IGROV1 ovarian; 2.29 µM in the test with NCI-H23 lung; 1.59 µM with NCI-H522 lung. The GI50 with OVCAR-8 ovarian was 2.3 µM; in the test on SK-MEL-28 melanoma, 1.18 µM; with SR leukemia, 1.93 µM. The TGI in the test on A549 NSCLC was 4.76 µM; in the test with COLO 205 colon it was 3.15 µM; with HCT-116 colon, 3.07 µM; in the test on IGROV1 ovarian it was 5.07 µM; with NCI-H23 lung, 6.3 µM; in the test with NCI-H522 lung, 3.37 µM. In addition, the TGI in the test on OVCAR-8 ovarian was determined as 5.91 µM; with SK-MEL-28 melanoma, 2.54 µM; in the test on SR leukemia, 3.94 µM.

With `Cc1cc(C)n(C(=O)c2nn(-c3ccc(Cl)cc3)cc2O)n1`, the GI50 with A549 NSCLC was 3.72 µM; in the test with COLO 205 colon, 18.5 µM; in the test on HCT-116 colon, 3.42 µM; with IGROV1 ovarian, 3.16 µM; in the test on NCI-H23 lung, 3.31 µM; in the test on NCI-H522 lung it was 7.37 µM. Besides, the GI50 in the test with OVCAR-8 ovarian was 5.96 µM; in the test on SK-MEL-28 melanoma, 6.28 µM; in the test with SK-OV-3 ovarian, 7.04 µM; with SR leukemia, over 100 µM. In addition, the TGI in the test on A549 NSCLC was over 100 µM; in the test with COLO 205 colon, 48.1 µM; with HCT-116 colon, 48.2 µM; in the test with IGROV1 ovarian, 73.3 µM; in the test on NCI-H23 lung it was over 100 µM; in the test on NCI-H522 lung it was 50.7 µM. Moreover, the TGI in the test with OVCAR-8 ovarian was over 100 µM; in the test on SK-MEL-28 melanoma, over 100 µM; in the test with SK-OV-3 ovarian, 66.1 µM; in the test on SR leukemia it was over 100 µM.

Source of the values: PubChem BioAssay (NCI).
